One test concerns the target T1, RhoA-LARG interaction (Homo sapiens, UniProt P61586).
T1 construct: 100 ng of purified full-length RhoA
Kind of test: In vitro complex-formation assay of RhoA with LARG DH-PH domain. To be noted: 20 µM; pull-down assay conditions, 4 °C, 1 h. The format is binding. The protocol:
(A) A complex-formation assay tested the inhibitory effects of 20 µM UC-177618 and UC-177619 on RhoA interaction with the LARG DH-PH domain. […] After incubating the compound-RhoA-LARG mixture at 4 °C for 1 h, the beads associated with RhoA were detected with anti-RhoA Western blotting. (B,C) Top view of the predicted structural contacts of UC-177618 and UC-177619 in the binding pocket around the Trp58 residue of RhoA.
(A) A complex-formation assay tested the inhibitory effects of R-G04 and S-G04 on RhoA interaction with the LARG DH-PH domain. MBP-(His)6-tagged LARG (100 ng) was immobilized on Amylose beads. Binding buffer containing full-length RhoA (100 ng) was pre-incubated with different concentrations of R-G04 (25 µM or 50 µM), and S-G04 (5 µM or 10 µM) was added to the beads. After incubating the compound-RhoA-LARG mixture at 4 °C for 1 h, the beads associated with RhoA were detected with anti-RhoA Western blotting. (B) Top view of the predicted structural contacts of R-G04 and S-G04 in the binding pocket around the Trp58 residue of RhoA.
In total, 100 ng of purified MBP (Maltose-binding protein)-(His)6-tagged LARG DH-PH was immobilized on 20 µL of suspended amylose beads (No. E8021S; New England Biolabs Inc., Ipswich, MA, USA) by incubating them in an orbital shaker at 4 °C for 30 min in binding buffer (20 mM Tris·HCl (pH 7.6), 100 mM NaCl, 0.01% Triton X-100, 5mM EDTA, and 5 mM MgCl2). The compounds were added to the binding buffer containing 100 ng of purified full-length RhoA and pre-incubated at 4 °C for 30 min under constant agitation. The Amylose beads bound to LARG were washed thrice with binding buffer to get rid of unbound LARG, and the pre-incubated compound-RhoA mixture was added to the beads. This LARG-compound-RhoA mixture was incubated in the orbital shaker at 4 °C for 1 h. The beads were washed three times, and the amount of RhoA protein co-precipitated with the MBP-fusion-bound beads was detected with anti-RhoA Western blotting.

The next test relates to RhoA. Nature of the test: RhoA-GTP formation, GST-Rhotekin effector pull-down assay in collagen-stimulated platelets. The class given is cell-based, human. To be noted: 20 µM, 2 min pre-incubation; collagen 1 µg/mL for 4 min. The protocol:
Next, the ability of the six compounds to suppress RhoA activity in platelets was assessed by subjecting them to a GST (Glutathione-S-transferase)-Rhotekin effector pull-down assay. The compounds were incubated with washed human platelets for 2 min before being stimulated with 1 µg/mL collagen. The analogs inhibited the activation of RhoA at the 20 µM concentration (Figure 2A,B). […] After confirming that these analogs could prevent RhoA activation and the phosphorylation of the MLC, their ability to disrupt complex-formation between RhoA and LARG was tested. […] These findings indicate that the active analogs inhibit RhoA activation by disrupting the binding between RhoA and its GEF.
(A,B) Washed human platelets were incubated with collagen (1 µg/mL) for 4 min, and the levels of RhoA-GTP formation were quantified with a GST-Rhotekin effector pull-down assay. The platelets were pre-incubated with 20 µM UC-177618, UC-177619, UC-177628, UC-177629, […], or […] for 2 min before being stimulated with collagen. The addition of ice-cold lysis buffer terminated the reaction. […] Relative amounts of the GTP-bound form of RhoA were quantified with densitometry measurements of total RhoA (T-RhoA) and normalized to untreated platelets. (C,D) The addition of 20 µM of active Rhosin-related compounds to washed human platelets 2 min before stimulation with collagen blocked the phosphorylation of the myosin light chain (p-MLC). The reactions were terminated after 4 min by adding 4x Laemmli sample buffer. The samples were processed for Western blotting and probed for MLC and p-MLC, and phosphorylation was quantified by measuring the densitometry of total MLC (T-MLC). The differences between DMSO- and Rhosin-related compounds were analyzed with t-test, and the results are shown as means ± SDs of three independent experiments. (* p < 0.05, ** p < 0.01, *** p < 0.001, and **** p < 0.0001).
The relative levels of RhoA-GTP in washed human platelets were quantified with effector domains GST-Rhotekin pull-down assays as previously reported. A volume of 250 µL of washed human platelets (2.5 × 10^8/mL) was pre-warmed to 37 °C along with the compounds or DMSO (0.1%) for 2 min before being stimulated with collagen (1 µg/mL). The reactions were terminated 4 min after collagen stimulation by adding ice-cold lysis buffer (20 mM Tris·HCl (pH 7.6), 100 mM NaCl, 1% Triton X-100, 0.2% Sodium Deoxycholate, 10 mM MgCl2, 1 mM dithiothreitol, 1x protease inhibitor cocktail, and 1x phosphatase inhibitor cocktail). The supernatants were collected and subjected to the GST-Rhotekin pull-down assay. The total cell lysates were also blotted in parallel. GTP-bound RhoA was quantitatively detected with Western blotting using an anti-RhoA antibody. The relative amounts of RhoA were quantified with densitometry measurements and normalized to the untreated platelets.

For test [1], the system named is washed human platelets. Kind of test: Collagen-induced platelet aggregation, light transmission aggregometry (Born method). The class given is cell-based. To be noted: for IC50: Homo sapiens, collagen-induced platelet aggregation, compounds without IC50 determination estimated from percent inhibition at 20 µM, read-out: IC50 (SAR table); for IC50 / activity at 20 µM: Platelet; for activity at 20 µM: compound 20 µM, washed human platelets, means ± SDs of three experiments, 100% = agonist alone. The protocol: Light transmission aggregometry, i.e., the Born method, was used to determine in vitro antiplatelet aggregation activity using collagen as the agonist for platelet aggregation. Collagen was selected as the agonist, since it is the most thrombogenic component of the subendothelial layer. Collagen also serves as a substrate for platelet adhesion and as an inducer of platelet activation.
All experiments using human blood from healthy volunteers were performed according to the protocols approved by the Institutional Review Board at Cincinnati Children’s Hospital Medical Center, Cincinnati, Ohio. Each volunteer was required to sign an informed consent form approved by the IRB. Procedures for drawing human blood, isolating platelet-rich plasma (PRP), and preparing washed platelet suspensions were the same as those previously reported. […] PRP was obtained by means of the centrifugation of blood at 1400 rpm for 15 min at room temperature. PRP was centrifuged at 4000 rpm for 10 min at room temperature, and the platelet pellet was resuspended in HEPES Tyrode’s solution (pH 7.4) without calcium. Platelets were counted using Hemavet 950FS (Drew Scientific, Oxford, CT, USA), and the count was adjusted to 2.5 × 10^8/mL for aggregation studies.
The in vitro antiplatelet activity of the compounds was assayed on washed human platelets using light transmission aggregometry. Platelet aggregation was performed using a 4-channel Lumi-aggregometer (Chronolog, PA, USA) at 37 °C and stirring speed of 900 rpm. A volume of 250 µL of washed human platelets (2.5 × 10^8/mL) was pre-warmed to 37 °C along with the compounds or DMSO (0.1%) for 2 min before the addition of agonists such as collagen, AA, U46619 (a stable synthetic analog of thromboxane A2), ADP, and thrombin. For ATP secretion, platelets were pre-incubated with a luciferin/luciferase kit (Chrono-lume®) for 30 s at 37 °C before the addition of the agonist. The reactions were allowed to proceed for at least 4 min, and the results of platelet aggregation and ATP secretion were determined using Aggrolink software. Platelet aggregation was expressed as the maximum change in the light transmission, where the 100% value corresponded to treatment with the agonist alone. Compounds were evaluated in triplicate at nine compound concentrations ranging from 50 µM to 1 µM.

The subject of test [2] is washed human platelets. Kind of test: Wash-out reversibility of inhibition of collagen-induced platelet aggregation. The format is cell-based. The protocol:
The reversible inhibition of Rhosin in collagen-induced platelet aggregation was assessed with similar wash-out experiments, and this reversible nature of Rhosin makes it a valuable antiplatelet drug candidate (Supporting Information Figure S4A,B). After confirming the structures of the above six active analogs, similar wash-out experiments were performed to compare the reversible function of the active analogs with Rhosin reversibility.

The mark [3] stands for this setting: read-out: % Platelet Aggregation, Collagen (1 µg/mL).
The mark [4] stands for this setting: read-out: % Platelet Aggregation, Collagen (5 µg/mL).

Read-outs that look alike come from different tables or passages of the source. Where only a bound is given, the exact number is not on record here.

T1 sequence (P61586 whole entry): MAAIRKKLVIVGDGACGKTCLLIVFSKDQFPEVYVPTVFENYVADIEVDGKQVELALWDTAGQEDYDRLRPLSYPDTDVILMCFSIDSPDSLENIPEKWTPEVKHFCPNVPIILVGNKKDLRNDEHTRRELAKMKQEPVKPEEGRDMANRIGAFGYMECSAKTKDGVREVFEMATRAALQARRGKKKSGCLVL

As for `O=C(NNc1ccnc2cc(Cl)ccc12)c1ccc(Cl)c(Cl)c1` [UC-177619], on RhoA-LARG interaction, the “LARG binding to RhoA” value was “inhibit RhoA-LARG interaction”. Further, the RhoA-GTP formation result in the test on RhoA is “inhibited RhoA-GTP formation”. For the same compound, the IC50 in the test on washed human platelets [1] is 820 nM. Moreover, the activity at 20 µM worked out at 9.3 ± 3.5% with washed human platelets [1] (setting [3]) and 12 ± 2.1% in the test on washed human platelets [1] (setting [4]). In addition, the “activity in collagen-induced platelet aggregation (SAR statement)” value in the test on washed human platelets [1] (relative to the quinoline analogs) was “slightly better potency”. In the test with washed human platelets [2], the “reversibility of inhibitory effect after wash-out” value is “entirely reversible”.

`O=C(NNc1ccnc2ccccc12)c1cc2ccccc2[nH]1` [UC-177626]: at RhoA-LARG interaction, the “LARG binding to RhoA” value is on record as “showed no effects”. Also, the IC50 in the test with washed human platelets [1] is more than 20000 nM. The activity at 20 µM with washed human platelets [1] (setting [3]) was determined as 86 ± 14.4%; in the test with washed human platelets [1] (setting [4]), 87.6 ± 19.4%.

As to `O=C(NNc1ccnc2c(C(F)(F)F)cccc12)c1ccc(Cl)c(Cl)c1` [UC-177618], the “LARG binding to RhoA” value on RhoA-LARG interaction is given as “inhibit RhoA-LARG interaction”. Moreover, the RhoA-GTP formation entry in the test with RhoA is listed as “inhibited RhoA-GTP formation”. Besides, the half-inhibitory concentration (IC50) in the test with washed human platelets [1] is 1500 nM. In addition, the values for the activity at 20 µM in the test on washed human platelets [1] (setting [3]) and with washed human platelets [1] (setting [4]) were 5 ± 1.7% and 10.2 ± 4.1%, respectively. The “reversibility of inhibitory effect after wash-out” value with washed human platelets [2] is “entirely reversible”.

These data come from publication PMC9961652 (International Journal of Molecular Sciences, 2023).
